The source made the active and inactive calls. The rule behind the calls is not given here.
Key:
PANC-1 [1] = assay: Anti-austerity activity against human PANC-1 cells assessed as cell killing incubated for 24 hrs in nutrient deprived medium by CCK8 assay; assay type: functional
PANC-1 [2] = assay: Cytotoxicity against human PANC-1 cells assessed as ruptured cell membrane by measuring red fluorescence emission incubated for 24 hrs in nutrient deprived medium by ethidium bromide/acridine orange double staining based fluorescence microscopic analysis; assay type: functional; settings: dose 5-10 µM
PANC-1 [3] = assay: Cytotoxicity against human PANC-1 cells assessed as swollen cell morphology by measuring red fluorescence emission incubated for 24 hrs in nutrient deprived medium by ethidium bromide/acridine orange double staining based fluorescence microscopic analysis; assay type: functional; settings: dose 5-10 µM
PANC-1 [4] = assay: Inhibition of colony formation in human PANC-1 cells treated for 24 hrs followed by replacement with fresh DMEM medium and measured after 10 days by crystal violet staining based assay; assay type: functional, cell-based; settings: dose 10-40 µM
PANC-1 [5] = assay: Cytotoxicity against human PANC-1 cells assessed as reduction in cell viability incubated for 24 hrs in nutrient-rich DMEM medium by CCK8 assay; assay type: cell-based; settings: panc-1, 24 h
PANC-1 [6] = assay: Inhibition of colony formation in human PANC-1 cells at 10 to 40 uM treated for 24 hrs followed by replacement with fresh DMEM medium and measured after 10 days by crystal violet staining based assay relative to control; assay type: functional; settings: dose 10-40 µM
PANC-1 [7] = assay: Cytotoxicity against human PANC-1 cells assessed as membrane blebs by measuring red fluorescence emission incubated for 24 hrs in nutrient deprived medium by ethidium bromide/acridine orange double staining based fluorescence microscopic analysis; assay type: functional, cell-based; settings: dose 5-10 µM
PANC-1 [8] = assay: Cytotoxicity against human PANC-1 cells assessed as cell death at 10 uM incubated in nutrient deprived medium measured every 15 mins for 23 hrs by time-lapse live imaging based analysis; assay type: functional
PANC-1 [9] = assay: Inhibition of colony formation in human PANC-1 cells at 20 uM treated for 24 hrs followed by replacement with fresh DMEM medium and measured after 10 days by crystal violet staining based assay relative to control; assay type: functional
PANC-1 [10] = assay: Inhibition of colony formation in human PANC-1 cells at 40 uM treated for 24 hrs followed by replacement with fresh DMEM medium and measured after 10 days by crystal violet staining based assay relative to control; assay type: functional
PANC-1 [11] = assay: Cytotoxicity against human PANC-1 cells assessed as membrane blebbing at 10 uM incubated in nutrient deprived medium measured every 15 mins for 13 hrs by time-lapse live imaging based analysis; assay type: functional, cell-based
PANC-1 [12] = assay: Cytotoxicity against human PANC-1 cells assessed as cell shrinkage at 5 to 10 uM incubated in nutrient deprived medium measured every 15 mins for 8 hrs by time-lapse live imaging based analysis; assay type: functional; settings: dose 5-10 µM
PANC-1 [13] = assay: Cytotoxicity against human PANC-1 cells assessed as inhibition of cell mobility at 5 to 10 uM incubated in nutrient deprived medium measured every 15 mins for 4 hrs by time-lapse live imaging based analysis; assay type: functional; settings: dose 5-10 µM

SMILES	PC50 (PANC-1 [1]) [µM]	Activity (PANC-1 [5])	other results
COc1cc(C[C@H]2C(=O)OC[C@@H]2Cc2ccc(OC)c(OC)c2)ccc1O [ARCTIGENIN]	0.7	–	–
CC(C)=CCC/C(C)=C/CC[C@@](C)(O)CCc1c(O)cc(O)c(C(=O)c2ccccc2)c1O	5.9	Non-Toxic	Activity (PANC-1 [2]): Dose-Dependent Effect; Activity (PANC-1 [3]): Dose-Dependent Effect; inhibition (PANC-1 [4]): Dose-Dependent Effect; inhibition (INH) (PANC-1 [6]): >60%; Activity (PANC-1 [7]): Dose-Dependent Effect
O=C(c1ccccc1O)c1cc(O)ccc1O	42.5	Non-Toxic	–
COc1cc2c(=O)c3ccccc3oc2cc1O	>100	Non-Toxic	–
CC(C)=CCC/C(C)=C/CC[C@@]1(C)Oc2c(c(O)cc(O)c2C(=O)c2ccccc2)C[C@H]1O	6.7	Non-Toxic	–
CC(C)=CCC/C(C)=C/CC/C(C)=C/Cc1c(O)cc(O)c(C(=O)c2ccccc2)c1O	8.3	Non-Toxic	–
CC(C)(O)[C@@H]1CC[C@@]2(C)C[C@@H]1c1c(O)cc(O)c(C(=O)c3ccccc3)c1O2	4.9	Non-Toxic	Activity (PANC-1 [8]): Active; inhibition at 20 µM (PANC-1 [9]): 45%; Activity (PANC-1 [2]): Dose-Dependent Effect; inhibition at 40 µM (PANC-1 [10]): 64%; Activity (PANC-1 [3]): Dose-Dependent Effect; Activity (PANC-1 [11]): Active; inhibition (PANC-1 [4]): Dose-Dependent Effect; Activity (PANC-1 [12]): Active; Activity (PANC-1 [13]): Active; Activity (PANC-1 [7]): Dose-Dependent Effect
O=c1c2ccc(O)cc2oc2ccc(O)cc12	45.2	Non-Toxic	–
COc1cccc2c(=O)c3c(O)cccc3oc12	61	Non-Toxic	–
CC(C)=CCC/C(C)=C/CC[C@]1(C)CCc2c(O)cc(O)c(C(=O)c3ccccc3)c2O1	12.3	Non-Toxic	–

Reference: ChEMBL document CHEMBL4823265, “Benzophenones from Betula alnoides with Antiausterity Activities against the PANC-1 Human Pancreatic Cancer Cell Line” (J Nat Prod, 2021)
